Assay results taken from US12568972B2, “Pyridazinol compounds and derivatives, preparation methods, herbicidal compositions and applications thereof” (Qingdao Kingagroot Chemical Compound Co., Ltd., priority 2018, dated 2026).

Tests used:
Test in all cases: Post-emergence test, weed control effect
Assay type in all cases: in vivo
Details in all cases: after 3 weeks
[1] = tested on: Amaranthus retroflexus
Outline: (§1)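 Activity is expressed as a level from 0 (no effect) to 10 (plant dead), each step matching a further 10% fresh-weight inhibition, assessed 3 weeks post-treatment. Treatment: spray at 2-3 leaf stage of pot-grown plants, compound in acetone, Tween-80 and water with 80% vegetable oil methyl ester synergist at 1500 g/ha.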

[2] = tested on: Rorippa indica
Outline: as §1

[3] = tested on: Veronica polita
Outline: as §1

[4] = tested on: Chenopodiaceae
Outline: as §1

Oc1cc(C(F)(F)F)nnc1C1C=C2C=CC=CC2N1 (stereo not drawn) [Compound 877]
10: weed control effect (activity level), Amaranthus retroflexus ([1]; Dose 3000 g/ha) | weed control effect (activity level), Rorippa indica ([2]; Dose 3000 g/ha) | weed control effect (activity level), Veronica polita ([3]; Dose 3000 g/ha) | weed control effect (activity level), Chenopodiaceae ([4]; Dose 3000 g/ha)

Oc1cc(C(F)(F)F)nnc1-c1cncc(Br)c1 [Compound 967]
10: weed control effect (activity level), Amaranthus retroflexus ([1]; Dose 3000 g/ha) | weed control effect (activity level), Rorippa indica ([2]; Dose 3000 g/ha) | weed control effect (activity level), Veronica polita ([3]; Dose 3000 g/ha) | weed control effect (activity level), Chenopodiaceae ([4]; Dose 3000 g/ha)

CC(Cl)C(=O)Oc1cc(C(F)(F)F)nnc1-c1ccc(C(F)(F)F)cc1 (stereo not drawn) [Compound 1-22]
10: weed control effect, Amaranthus retroflexus (activity level) ([1]; Dose 3000 g/ha) | weed control effect, Rorippa indica (activity level) ([2]; Dose 3000 g/ha) | weed control effect, Veronica polita (activity level) ([3]; Dose 3000 g/ha) | weed control effect, Chenopodiaceae (activity level) ([4]; Dose 3000 g/ha)

Oc1cc(C(F)(F)F)nnc1-c1ccccc1F [Compound 26]
10: weed control effect (activity level), Amaranthus retroflexus ([1]; dose 1000 g/ha) | weed control effect (activity level), Rorippa indica ([2]; dose 1000 g/ha) | weed control effect (activity level), Veronica polita ([3]; dose 1000 g/ha) | weed control effect (activity level), Chenopodiaceae ([4]; dose 1000 g/ha)

Oc1cc(C(F)(F)F)nnc1-c1cccc2ccccc12 [Compound 380]
10: weed control effect (activity level), Amaranthus retroflexus ([1]; dose 2000 g/ha) | weed control effect (activity level), Rorippa indica ([2]; dose 2000 g/ha) | weed control effect (activity level), Veronica polita ([3]; dose 2000 g/ha) | weed control effect (activity level), Chenopodiaceae ([4]; dose 2000 g/ha)

CCOc1cc(-c2nnc(C(F)(F)F)cc2O)n(C)n1 [Compound 783]
10: weed control effect (activity level), Amaranthus retroflexus ([1]; Dose 3000 g/ha) | weed control effect (activity level), Rorippa indica ([2]; Dose 3000 g/ha) | weed control effect (activity level), Veronica polita ([3]; Dose 3000 g/ha) | weed control effect (activity level), Chenopodiaceae ([4]; Dose 3000 g/ha)

Oc1cc(C(F)(F)F)nnc1-c1cncc(I)c1 [Compound 971]
10: weed control effect (activity level), Amaranthus retroflexus ([1]; Dose 3000 g/ha) | weed control effect (activity level), Rorippa indica ([2]; Dose 3000 g/ha) | weed control effect (activity level), Veronica polita ([3]; Dose 3000 g/ha) | weed control effect (activity level), Chenopodiaceae ([4]; Dose 3000 g/ha)

CCS(=O)(=O)Oc1cc(C(F)(F)F)nnc1-c1ccc(F)cc1 [Compound 1-121]
10: weed control effect, Amaranthus retroflexus (activity level) ([1]; Dose 3000 g/ha) | weed control effect, Rorippa indica (activity level) ([2]; Dose 3000 g/ha) | weed control effect, Veronica polita (activity level) ([3]; Dose 3000 g/ha) | weed control effect, Chenopodiaceae (activity level) ([4]; Dose 3000 g/ha)

Oc1cc(C(F)(F)F)nnc1-c1cc(Cl)cc(Cl)c1 [Compound 40]
10: weed control effect (activity level), Amaranthus retroflexus ([1]; dose 1000 g/ha) | weed control effect (activity level), Rorippa indica ([2]; dose 1000 g/ha) | weed control effect (activity level), Veronica polita ([3]; dose 1000 g/ha) | weed control effect (activity level), Chenopodiaceae ([4]; dose 1000 g/ha)

CC(C)OC(=O)OC(C)Oc1cc(C(F)(F)F)nnc1-c1ccccc1 (stereo not drawn) [Compound 1-240]
10: weed control effect, Amaranthus retroflexus (activity level) ([1]; Dose 3000 g/ha) | weed control effect, Rorippa indica (activity level) ([2]; Dose 3000 g/ha) | weed control effect, Veronica polita (activity level) ([3]; Dose 3000 g/ha) | weed control effect, Chenopodiaceae (activity level) ([4]; Dose 3000 g/ha)

Cn1nc(C2CC2)cc1-c1nnc(C(F)(F)F)cc1O [Compound 781]
10: weed control effect (activity level), Amaranthus retroflexus ([1]; Dose 3000 g/ha) | weed control effect (activity level), Rorippa indica ([2]; Dose 3000 g/ha) | weed control effect (activity level), Veronica polita ([3]; Dose 3000 g/ha) | weed control effect (activity level), Chenopodiaceae ([4]; Dose 3000 g/ha)

O=S(Oc1cc(C(F)(F)F)nnc1-c1ccc(F)cc1)C(F)(F)F (stereo not drawn) [Compound 1-166]
10: weed control effect, Amaranthus retroflexus (activity level) ([1]; Dose 3000 g/ha) | weed control effect, Rorippa indica (activity level) ([2]; Dose 3000 g/ha) | weed control effect, Veronica polita (activity level) ([3]; Dose 3000 g/ha) | weed control effect, Chenopodiaceae (activity level) ([4]; Dose 3000 g/ha)

Cc1cc(-c2nnc(C(F)(F)F)cc2O)cnc1Cl [Compound 225]
10: weed control effect (activity level), Amaranthus retroflexus ([1]; dose 2000 g/ha) | weed control effect (activity level), Rorippa indica ([2]; dose 2000 g/ha) | weed control effect (activity level), Veronica polita ([3]; dose 2000 g/ha) | weed control effect (activity level), Chenopodiaceae ([4]; dose 2000 g/ha)

N#Cc1ccc(-c2nnc(C(F)(F)F)cc2O)cn1 [Compound 983]
10: weed control effect (activity level), Amaranthus retroflexus ([1]; Dose 3000 g/ha) | weed control effect (activity level), Rorippa indica ([2]; Dose 3000 g/ha) | weed control effect (activity level), Veronica polita ([3]; Dose 3000 g/ha) | weed control effect (activity level), Chenopodiaceae ([4]; Dose 3000 g/ha)

N#Cc1ccncc1-c1nnc(C(F)(F)F)cc1O [Compound 980]
10: weed control effect (activity level), Amaranthus retroflexus ([1]; Dose 3000 g/ha) | weed control effect (activity level), Rorippa indica ([2]; Dose 3000 g/ha) | weed control effect (activity level), Veronica polita ([3]; Dose 3000 g/ha) | weed control effect (activity level), Chenopodiaceae ([4]; Dose 3000 g/ha)

CC(C)n1nccc1-c1nnc(C(F)(F)F)cc1O [Compound 828]
10: weed control effect (activity level), Amaranthus retroflexus ([1]; Dose 3000 g/ha) | weed control effect (activity level), Rorippa indica ([2]; Dose 3000 g/ha) | weed control effect (activity level), Veronica polita ([3]; Dose 3000 g/ha) | weed control effect (activity level), Chenopodiaceae ([4]; Dose 3000 g/ha)

COc1cnn(C)c1-c1nnc(C(F)(F)F)cc1O [Compound 811]
10: weed control effect (activity level), Amaranthus retroflexus ([1]; Dose 3000 g/ha) | weed control effect (activity level), Rorippa indica ([2]; Dose 3000 g/ha) | weed control effect (activity level), Veronica polita ([3]; Dose 3000 g/ha) | weed control effect (activity level), Chenopodiaceae ([4]; Dose 3000 g/ha)

N#Cc1cccc(-c2nnc(C(F)(F)F)cc2O)c1 [Compound 742]
10: weed control effect (activity level), Amaranthus retroflexus ([1]; Dose 3000 g/ha) | weed control effect (activity level), Rorippa indica ([2]; Dose 3000 g/ha) | weed control effect (activity level), Veronica polita ([3]; Dose 3000 g/ha) | weed control effect (activity level), Chenopodiaceae ([4]; Dose 3000 g/ha)
